ChEMBL document CHEMBL5241097, “Synthetically-tailored and nature-derived dual COX-2/5-LOX inhibitors: Structural aspects and SAR” (Eur J Med Chem, 2021)

Key:
[1] = molecular target: T1, Polyunsaturated fatty acid 5-lipoxygenase (Homo sapiens, UniProt P09917); experiment: Inhibition of 5-LOX (unknown origin) by fluorometric analysis
T1 sequence (P09917 whole entry): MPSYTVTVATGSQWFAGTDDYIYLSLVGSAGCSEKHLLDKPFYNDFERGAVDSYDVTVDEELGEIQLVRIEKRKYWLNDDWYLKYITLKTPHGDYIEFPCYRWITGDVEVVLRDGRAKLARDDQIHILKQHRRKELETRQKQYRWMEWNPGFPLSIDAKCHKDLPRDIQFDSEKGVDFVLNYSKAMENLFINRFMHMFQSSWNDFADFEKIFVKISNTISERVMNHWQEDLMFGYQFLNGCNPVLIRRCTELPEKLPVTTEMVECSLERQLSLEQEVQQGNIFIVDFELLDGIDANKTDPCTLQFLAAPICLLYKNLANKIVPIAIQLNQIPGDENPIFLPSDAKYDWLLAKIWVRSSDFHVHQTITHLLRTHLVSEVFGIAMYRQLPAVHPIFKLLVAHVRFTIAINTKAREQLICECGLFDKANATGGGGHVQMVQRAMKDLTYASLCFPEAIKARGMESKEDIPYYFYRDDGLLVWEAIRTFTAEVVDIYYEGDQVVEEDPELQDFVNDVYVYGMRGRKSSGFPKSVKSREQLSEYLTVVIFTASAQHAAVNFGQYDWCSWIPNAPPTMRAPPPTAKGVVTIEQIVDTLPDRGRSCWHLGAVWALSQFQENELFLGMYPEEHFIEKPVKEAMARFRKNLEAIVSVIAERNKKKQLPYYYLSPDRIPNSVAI

[2] = molecular target: T2, Prostaglandin G/H synthase 1 (Homo sapiens, UniProt P23219); experiment: Inhibition of recombinant human COX-1 using arachidonic acid as substrate by ELISA
T2 sequence (P23219 whole entry): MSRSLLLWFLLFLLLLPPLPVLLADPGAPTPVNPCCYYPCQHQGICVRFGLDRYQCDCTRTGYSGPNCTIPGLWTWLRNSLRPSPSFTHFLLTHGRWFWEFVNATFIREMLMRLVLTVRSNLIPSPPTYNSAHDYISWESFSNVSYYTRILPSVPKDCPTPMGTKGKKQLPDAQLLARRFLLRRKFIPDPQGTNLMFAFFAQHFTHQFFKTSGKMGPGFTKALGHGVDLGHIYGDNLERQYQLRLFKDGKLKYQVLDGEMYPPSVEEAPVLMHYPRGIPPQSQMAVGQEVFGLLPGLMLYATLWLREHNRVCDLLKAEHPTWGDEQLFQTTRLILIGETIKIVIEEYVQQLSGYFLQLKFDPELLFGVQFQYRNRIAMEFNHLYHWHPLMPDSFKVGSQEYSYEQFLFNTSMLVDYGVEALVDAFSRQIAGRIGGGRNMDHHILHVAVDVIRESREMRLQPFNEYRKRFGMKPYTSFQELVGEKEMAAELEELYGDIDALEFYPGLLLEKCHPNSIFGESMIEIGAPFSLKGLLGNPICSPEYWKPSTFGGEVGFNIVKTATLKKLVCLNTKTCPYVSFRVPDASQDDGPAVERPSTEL

[3] = molecular target: T3, Prostaglandin G/H synthase 2 (Homo sapiens, UniProt P35354); experiment: Inhibition of recombinant human COX-2 using arachidonic acid as substrate by ELISA
T3 sequence (P35354 whole entry): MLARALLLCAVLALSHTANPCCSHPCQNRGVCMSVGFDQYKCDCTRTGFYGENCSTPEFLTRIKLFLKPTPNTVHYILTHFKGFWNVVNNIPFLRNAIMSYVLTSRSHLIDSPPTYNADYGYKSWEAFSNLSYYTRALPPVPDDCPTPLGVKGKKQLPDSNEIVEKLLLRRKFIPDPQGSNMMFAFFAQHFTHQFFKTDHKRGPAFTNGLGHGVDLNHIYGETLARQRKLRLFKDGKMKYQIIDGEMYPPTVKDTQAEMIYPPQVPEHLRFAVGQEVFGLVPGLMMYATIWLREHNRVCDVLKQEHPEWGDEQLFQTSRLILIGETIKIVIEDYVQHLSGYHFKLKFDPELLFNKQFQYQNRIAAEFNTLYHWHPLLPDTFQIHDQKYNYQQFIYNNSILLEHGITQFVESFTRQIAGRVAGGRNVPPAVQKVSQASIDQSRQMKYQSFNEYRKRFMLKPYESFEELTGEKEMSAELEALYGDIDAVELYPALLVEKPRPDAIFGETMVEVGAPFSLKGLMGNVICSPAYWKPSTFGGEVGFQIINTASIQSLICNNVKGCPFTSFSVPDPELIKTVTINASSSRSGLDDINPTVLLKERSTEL

[4] = molecular target: T1, Polyunsaturated fatty acid 5-lipoxygenase; experiment: Inhibition of 5-LOX (unknown origin) by colorimetric assay
[5] = molecular target: T3, Prostaglandin G/H synthase 2; experiment: Inhibition of COX-2 (unknown origin) using arachidonic acid as substrate preincubated for 5 mins followed by substrate addition by colorimetric assay
[6] = molecular target: T3, Prostaglandin G/H synthase 2; experiment: Inhibition of recombinant human COX-2 using arachidonic acid as substrate preincubated for 5 mins followed by substrate addition and measured after 20 mins by ELISA
[7] = molecular target: T1, Polyunsaturated fatty acid 5-lipoxygenase; experiment: Inhibition of recombinant human 5-LOX using arachidonic acid as substrate preincubated for 10 mins followed by substrate addition and measured after 10 mins by ELISA
[8] = system: Rattus norvegicus; experiment: Antiinflammatory activity in carragenan-induced paw edema rat model assessed as reduction in edema thickness at 28 microg/kg, ip and measured after 4 hrs by digital Vernier caliper analysis; format: functional; set-up: scale not given: the % may be the effect or the level left; conditions: dose 28 µg/kg
[9] = molecular target: T1, Polyunsaturated fatty acid 5-lipoxygenase; experiment: Inhibition of 5-LOX (unknown origin) by enzyme immune assay
[10] = Selectivity index, ratio IC50 for inhibition of ovine COX-1 to IC50 for inhibition of recombinant human COX-2
[11] = molecular target: T3, Prostaglandin G/H synthase 2; experiment: Inhibition of recombinant human COX-2 by enzyme immune assay
[12] = molecular target: T1, Polyunsaturated fatty acid 5-lipoxygenase; experiment: Inhibition of 5-LOX (unknown origin)
[13] = system: Rattus norvegicus; experiment: Antiinflammatory activity in Wistar rat carragenan-induced paw edema model assessed as reduction in edema thickness at 50 mg/kg, po and measured after 2 hrs; format: functional; set-up: scale not given: the % may be the effect or the level left
[14] = system: Rattus norvegicus; experiment: Antiinflammatory activity in po dosed Sprague-Dawley rat assessed as reduction in carragenan-induced paw edema and measured after 4 hrs by vernier caliper method; format: functional; set-up: scale not given: the % may be the effect or the level left
[15] = system: DU-145; experiment: Antiproliferative activity against human DU-145 cells assessed as reduction in cell viability incubated for 48 hrs by MTT assay; format: functional, cell-based; conditions: DU-145, 48 h
[16] = Inhibition of soybean 5-LOX using arachidonic acid as substrate preincubated for 5 mins followed by substrate addition and measured after 5 mins by microplate spectrophotometric analysis; set-up: species or system Glycine max
[17] = molecular target: T3, Prostaglandin G/H synthase 2; experiment: Inhibition of COX-2 (unknown origin) using arachidonic acid as substrate preincubated for 5 mins followed by substrate addition and measured after 20 mins by colorimetric assay
[18] = species: Homo sapiens; experiment: Selectivity index, ratio of IC50 for inhibition of human COX1 to IC50 for inhibition of human COX2
[19] = Inhibition of soybean 5-LOX using linoleic acid as substrate by spectrophotometric analysis; set-up: species or system Glycine max
[20] = molecular target: T3, Prostaglandin G/H synthase 2; experiment: Inhibition of COX-2 (unknown origin) using arachidonic acid as substrate preincubated for 15 mins followed by substrate addition by colorimetric assay
[21] = molecular target: T1, Polyunsaturated fatty acid 5-lipoxygenase; experiment: Inhibition of 5-LOX (unknown origin) using linoleic acid as substrate preincubated for 5 mins followed by substrate addition by spectrophotometric assay
[22] = molecular target: T1, Polyunsaturated fatty acid 5-lipoxygenase; experiment: Inhibition of recombinant human 5-LOX using arachidonic acid as substrate incubated for 10 mins by spectrophotometric analysis
[23] = molecular target: T3, Prostaglandin G/H synthase 2; experiment: Inhibition of recombinant human COX-2 using arachidonic acid as substrate preincubated for 10 mins followed by substrate addition and measured after 2 mins by Ellman's reagent based ELISA
[24] = molecular target: T3, Prostaglandin G/H synthase 2; experiment: Inhibition of COX-2 (unknown origin)
[25] = Inhibition of potato 5-LOX using linoleic acid as substrate preincubated for 5 mins followed by substrate addition and measured after 5 mins by spectrophotometric assay; set-up: species or system Solanum tuberosum
[26] = system: Rattus norvegicus; experiment: Antiinflammatory activity in Wistar rat assessed as reduction in carragenan-induced paw edema at 10 mg/kg, po for 7 days followed by carrageenan stimulation and measured upto 6 hrs by vernier caliper method; format: functional; set-up: scale not given: the % may be the effect or the level left; conditions: time 7 day
[27] = molecular target: T2, Prostaglandin G/H synthase 1; experiment: Inhibition of human COX-1 using arachidonic acid as substrate preincubated for 10 mins followed by substrate addition and measured after 2 mins by ELISA

`COc1cccc(/C=c2\c(=O)[nH]n3c(=O)c4ccccc4nc23)c1` gave an IC50 [1] of 600 nM, an IC50 [2] of 1480 nM and an IC50 [3] of 488 nM.

For `COc1cc(/C=c2\c(=O)[nH]n3c(=O)c4ccccc4nc23)cc(OC)c1OC`, the IC50 [1] was 2300 nM, the IC50 [2] was 668 nM and the IC50 [3] was 47 nM.

`N=C1/C(=N\Nc2ccc(S(N)(=O)=O)cc2)C(N)=NN1c1ccc(S(N)(=O)=O)cc1` gave an IC50 [4] of 2780 nM and an IC50 [5] of 920 nM.

With `COc1cc(O)cc(/C=C/c2ccc(O)cc2)c1` the IC50 [6] was 250 nM and the IC50 [7] was 4010 nM.

`Nc1ccc(O)c(C(=O)NC2CCCCC2)c1` gave an Activity [8] of 102%.

For `CCCCCCNC(=O)c1cc(NCc2cc(O)ccc2O)ccc1O`, the IC50 [9] was 11900 nM, the Ratio IC50 [10] was 145 and the Activity [8] was 40.05%. For the same molecule, the IC50 [11] was 100 nM.

In the case of `O=C1N/C(=N\c2nc(-c3ccccc3)cs2)S/C1=C\c1ccc(Cl)cc1`, the IC50 [12] is reported as 54000 nM.

For `Cc1ccc(-c2cc(C(F)(F)F)nn2-c2ccc(S(N)(=O)=O)cc2)cc1` [CELECOXIB], the Activity [13] was 15.7% and the Activity [14] was 73.56%.

`CCCCNC(=O)c1cc(NCc2cc(O)ccc2O)ccc1O` showed an IC50 [9] of 10500 nM, a Ratio IC50 [10] of 135 and an Activity [8] of 40.05%. The IC50 [11] was 100 nM.

In the case of `CC(C)NC(=O)c1cc(N)ccc1O`, the IC50 [9] is reported as 3410 nM.

`CC(=O)OC[C@@H]1O[C@@H](n2cc(CNC(=O)C(=O)c3cn(S(=O)(=O)c4ccc(C)cc4)c4ccccc34)nn2)[C@H](OC(C)=O)[C@@H](OC(C)=O)[C@H]1OC(C)=O` showed an IC50 [15] of 18500 nM, an IC50 [16] of 7460 nM and an IC50 [17] of 120 nM.

For `N=C1/C(=N\Nc2ccc(S(N)(=O)=O)cc2)C(N)=NN1c1ccccc1C(=O)O`, the IC50 [4] was 2730 nM, the Activity [13] was 15% and the IC50 [5] was 1120 nM.

For `CC1=NN(c2ccccc2C(=O)O)C(=O)/C1=N/Nc1ccc(S(N)(=O)=O)cc1`, the IC50 [4] was 520 nM, the Activity [13] was 72.72% and the IC50 [5] was 720 nM.

Work on `Cc1ccc(-c2ncc(Cl)cc2-c2ccc(S(C)(=O)=O)cc2)cn1` yielded a Ratio IC50 [18] of 91.3.

In the case of `O=C(c1ccc(-c2nc(CSc3nc4ccccc4s3)no2)cc1)N1CCOCC1`, the IC50 [19] is reported as 5600 nM and the IC50 [20] is reported as 5000 nM.

Work on `Cc1c(C(=O)N2CCN(c3ccccc3)CC2)nc2ccc(Cl)cc2c1O` yielded a Ratio IC50 [18] of 7.61 and an IC50 [21] of 5910 nM.

For `COc1cc(/C=C/c2ccc(O)cc2)cc(OC)c1` [PTEROSTILBENE], the IC50 [6] was 5990 nM and the IC50 [7] was 1630 nM.

With `C=C1CCCC2C1(C)CCC(C)C2(C)CCC1=CC(=O)OC1O` (stereo not drawn) the IC50 [22] was 12700 nM and the IC50 [23] was 8490 nM.

`COc1cc(C(=O)O)cc(O)c1O` gave an IC50 [24] of 23400 nM.

For `Cc1ccc(-c2nc(N(c3ccccc3)c3ccccc3)sc2C(=O)c2cccs2)cc1`, the IC50 [25] was 380 nM, the Activity [26] was 60.82% and the IC50 [27] was 5550 nM. The Ratio IC50 [18] was 61.7.

For `C=C1C(O)CCC2C1(C)CCC(C)C2(C)CCC1=CC(=O)OC1O` (stereo not drawn), the IC50 [22] was 16500 nM and the IC50 [23] was 12800 nM.
